Assay results taken from publication PMC1892040 (PLoS Medicine, 2007).
Where two headings read alike, the source gives them in different places.

Columns and labels:
S. mansoni TGR [1] = target: T1, S. mansoni TGR (Schistosoma mansoni, UniProt Q962Y6)
T1 sequence (Q962Y6 1-598): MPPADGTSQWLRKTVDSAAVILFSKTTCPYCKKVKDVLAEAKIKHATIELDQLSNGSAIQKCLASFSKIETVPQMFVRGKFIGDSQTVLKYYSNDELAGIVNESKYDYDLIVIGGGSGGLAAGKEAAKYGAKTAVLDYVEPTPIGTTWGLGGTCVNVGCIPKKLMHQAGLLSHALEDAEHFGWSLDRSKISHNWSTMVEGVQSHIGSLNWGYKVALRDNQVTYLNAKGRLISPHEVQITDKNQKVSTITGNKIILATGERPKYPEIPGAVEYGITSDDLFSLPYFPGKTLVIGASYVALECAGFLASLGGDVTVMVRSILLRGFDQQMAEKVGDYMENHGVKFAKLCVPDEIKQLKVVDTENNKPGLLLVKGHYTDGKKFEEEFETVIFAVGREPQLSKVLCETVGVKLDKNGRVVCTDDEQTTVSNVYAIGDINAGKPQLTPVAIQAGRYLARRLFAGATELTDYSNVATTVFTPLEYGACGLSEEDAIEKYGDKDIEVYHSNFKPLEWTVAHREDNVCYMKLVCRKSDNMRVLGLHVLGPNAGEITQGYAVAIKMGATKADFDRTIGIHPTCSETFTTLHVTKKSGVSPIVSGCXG
Procedure: (§1) Assays were performed at 25 °C in 0.1 M potassium phosphate (pH 7.4), 10 mM EDTA using 100 μM NADPH unless otherwise stated.
(§2) Initial inhibitor screens were conducted in 200 μl volumes in 96 well plates with 50 μM inhibitor, 100 μM NADPH, and 5 nM TGR in 0.1 M potassium phosphate (pH 7.4), 10 mM EDTA with a preincubation step of 15 min. […] All assays were done in triplicate.

Human GR = target: T2, Human GR (Homo sapiens, UniProt P00390); conditions: read-out: IC50 Human GR, GSSG; cited from earlier work
T2 sequence (P00390 44-522): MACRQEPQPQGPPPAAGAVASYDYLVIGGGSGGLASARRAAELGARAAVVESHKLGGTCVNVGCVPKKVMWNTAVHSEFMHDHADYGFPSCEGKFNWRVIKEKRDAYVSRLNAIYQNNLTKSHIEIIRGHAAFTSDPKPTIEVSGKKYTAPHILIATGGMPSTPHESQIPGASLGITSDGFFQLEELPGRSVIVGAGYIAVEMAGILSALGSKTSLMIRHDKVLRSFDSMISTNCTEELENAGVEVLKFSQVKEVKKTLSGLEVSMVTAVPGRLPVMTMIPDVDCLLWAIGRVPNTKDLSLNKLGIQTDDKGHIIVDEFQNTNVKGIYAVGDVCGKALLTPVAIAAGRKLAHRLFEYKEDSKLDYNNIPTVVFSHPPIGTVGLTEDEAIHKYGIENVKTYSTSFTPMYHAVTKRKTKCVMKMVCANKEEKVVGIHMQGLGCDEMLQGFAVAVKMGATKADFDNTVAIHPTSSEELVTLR

Human TrxR = target: T3, Human TrxR (Homo sapiens, UniProt Q16881); conditions: read-out: IC50 Human TrxR, DTNB/Trx; cited from earlier work
T3 sequence (Q16881 1-499 isoform Q16881-5): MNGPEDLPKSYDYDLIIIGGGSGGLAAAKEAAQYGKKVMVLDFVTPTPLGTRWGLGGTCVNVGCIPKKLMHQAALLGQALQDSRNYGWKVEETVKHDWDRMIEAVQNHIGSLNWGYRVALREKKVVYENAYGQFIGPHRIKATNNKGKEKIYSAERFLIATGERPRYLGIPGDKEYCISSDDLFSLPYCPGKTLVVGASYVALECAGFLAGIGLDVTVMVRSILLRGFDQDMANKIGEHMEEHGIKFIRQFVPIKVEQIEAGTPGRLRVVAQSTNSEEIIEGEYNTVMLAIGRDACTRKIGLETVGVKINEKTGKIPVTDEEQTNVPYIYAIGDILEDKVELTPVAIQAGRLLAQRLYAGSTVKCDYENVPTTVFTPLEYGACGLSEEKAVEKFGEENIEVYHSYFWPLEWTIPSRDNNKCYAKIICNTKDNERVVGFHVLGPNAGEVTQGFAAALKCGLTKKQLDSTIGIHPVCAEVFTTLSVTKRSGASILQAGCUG

S. mansoni TGR [2] = target: T1, S. mansoni TGR; format: biochemical; set-up: The entire TGR ORF plus the SECIS element was subcloned into pET-24a; made in house; host or cells: Escherichia coli BL21(DE3) with pSUABC; conditions: read-out: IC50 S. mansoni TGR, DTNB (TrxR activity)
Procedure: as §1, §2

S. mansoni TGR [3] = target: T1, S. mansoni TGR; format: biochemical; set-up: The entire TGR ORF plus the SECIS element was subcloned into pET-24a; made in house; host or cells: Escherichia coli BL21(DE3) with pSUABC; conditions: read-out: IC50 S. mansoni TGR, GSSG (GR activity)
Procedure: as §1, §2

S. mansoni TGR [4] = target: T1, S. mansoni TGR; test: IC50, Grx activity of TGR (HED assay), 15 min preincubation; format: biochemical; set-up: The entire TGR ORF plus the SECIS element was subcloned into pET-24a; made in house; host or cells: Escherichia coli BL21(DE3) with pSUABC; conditions: 8 mM HED plus 1 mM GSH, 15 min preincubation with 100 μM NADPH
Procedure: as §1, §2

S. mansoni TGR [5] = target: T1, S. mansoni TGR; test: Kinetic analysis of recombinant S. mansoni TGR with substrates; conditions: for Specific activity, S. mansoni TGR: NADPH + substrate; for Specific activity of recombinant TGR with substrate: Trx coupled to insulin reduction, HED in Grx assay
Procedure: Kinetic parameters were determined using Lineweaver–Burk plots using KaleidaGraph 4 (Synergy Software, http://www.synergy.com) least squares best fit of data and varying concentrations of one substrate while maintaining the concentration of other substrates. […] All assays were done in triplicate.

Human TGR = conditions: cited from earlier work; for Specific activity, Human TGR: NADPH + substrate; for Km: read-out: Apparent Km, Human TGR
Human TrxR1 = conditions: cited from earlier work; for Specific activity, Human TrxR1: NADPH + substrate, ND, no activity detected; for Km: read-out: Apparent Km, Human TrxR1
S. mansoni TGR [6] = target: T1, S. mansoni TGR; test: biochemical; conditions: read-out: Activity of Enzyme (% of Uninhibited Enzyme)
Procedure: as §1, §2

schistosomula = test: Schistosomula survival after RNAi and/or drug treatment; format: cell-based, Schistosoma mansoni; conditions: 2 μM praziquantel
Procedure: Cercariae were mechanically transformed to schistosomula by vortexing, and bodies were separated from tails by Percoll gradient centrifugation as described [13]. Immediately after transformation, TGR dsRNA or irrelevant dsRNA (each at 54 μg/ml) was added to ~500 schistosomula in 50 μl water followed by incubation at 37 °C for 30 min. After addition of 250 μl of RPMI-1640 medium, 300 U/ml penicillin, and 175 μg/ml streptomycin, parasites were incubated at 37 °C in 5% CO2 atmosphere for 4 d. Reduced O2 tension was obtained by filtering media and purging with 95% N2, 5% CO2 for 20 min before use. Parasites were cultured during the course of the experiment in the appropriate gaseous mix at 37 °C in a sealed modular incubator chamber (Billups-Rothenberg, http://www.brincubator.com) flushed with the same gaseous mix. On day 2 of the experiment, 50 μl of fresh media was added. Schistosomula were assessed daily for viability by microscopy. For each time point at least 1,500 parasites were scored as alive or dead in each experiment (three replicates of 500 each), and each experiment was repeated three times.
(B) Parasites were cultured in the presence of double-stranded TGR RNA (dashed lines) or of double-stranded irrelevant RNA (solid lines) in 20% O2 (♦) or 0% O2 (). […] (C) Combination of RNAi and drug treatments. Solid lines are irrelevant dsRNA treatments and dashed lines are dsTGR treatments; no additions (♦), 2 μM praziquantel () and 2 μM AF (▴). […] In each experiment for each time point at least 1,500 parasites were scored as alive or dead (three replicates of 500 parasites). The error bars represent the standard deviations of three independent experiments.

[7] = substrate of TGR (20 nM), 25 °C, pH 7.4, 100 μM NADPH
[8] = substrate of TGR (20 nM), 25 °C, pH 7.4, 100 μM NADPH, ± SD
[9] = read-out: Apparent Km, S. mansoni TGR
[10] = 3 mM DTNB, 15 min preincubation with 100 μM NADPH
[11] = 100 μM GSSG, 15 min preincubation with 100 μM NADPH

## OC[C@H]1O[C@H]([S-])[C@H](O)[C@@H](O)[C@@H]1O.[Au+] [Aurothioglucose]
S. mansoni TGR [1]
  Activity of Enzyme (% of Uninhibited Enzyme): 0%
Human GR
  IC50: > 100000 nM
Human TrxR
  IC50: 65 nM
S. mansoni TGR [2]
  IC50: 70 nM
S. mansoni TGR [3]
  IC50: 3000 nM
S. mansoni TGR [4]
  IC50: 400 nM

## O=[Se]([O-])[O-].[Na+].[Na+] [Na2SeO3, sodium selenite]
S. mansoni TGR [5]; [7]
  kcat: 2.1 s⁻¹
S. mansoni TGR [5]; [8]
  Km: 66.7 ± 6.9 µM
  Vmax: 2.54 ± 0.046 µM/min

## OO [Compound H2O2, H2O2]
S. mansoni TGR [5]; [7]
  kcat: 9.4 s⁻¹
S. mansoni TGR [5]; [8]
  Km: 68000 µM
  Vmax: 11.3 ± 0.46 µM/min

## OCCSSCCO [HED, β-hydroxyethyl disulfide]
S. mansoni TGR [5]
  Apparent kcat, S. mansoni TGR: 17.8 s⁻¹
  Specific activity, S. mansoni TGR: 9.9 µmol/min/mg
  Specific activity of recombinant TGR with substrate: 9.9 U/mg
S. mansoni TGR [5]; [9]
  Km: 1870 µM
S. mansoni TGR [5]; [7]
  kcat: 17.8 s⁻¹
S. mansoni TGR [5]; [8]
  Km: 1870 µM
  Vmax: 21.4 ± 0.33 µM/min
Human TGR
  Specific activity, Human TGR: 1.9 µmol/min/mg
  Apparent kcat, Human TGR: 1.2 s⁻¹
  Km: 45.2 µM

## O=C(O)c1cc(SSc2ccc([N+](=O)[O-])c(C(=O)O)c2)ccc1[N+](=O)[O-] [DTNB, 5,5′-dithiobis(2-nitrobenzoic acid)]
S. mansoni TGR [5]
  Specific activity, S. mansoni TGR: 10.2 µmol/min/mg
  Specific activity of recombinant TGR with substrate: 10.2 U/mg
S. mansoni TGR [5]; [7]
  kcat: 16 s⁻¹
S. mansoni TGR [5]; [8]
  Km: 114 ± 9 µM
  Vmax: 19.2 ± 1.6 µM/min
Human TrxR1
  Specific activity, Human TrxR1: 25 µmol/min/mg
  Apparent kcat, Human TrxR1: 86 s⁻¹
  Km: 212 µM
Human TGR
  Specific activity, Human TGR: 3.1 µmol/min/mg
  Apparent kcat, Human TGR: 6.5 s⁻¹
  Km: 14.7 µM

## CC1=CC(=O)c2ccccc2C1=O [Menadione]
S. mansoni TGR [6]
  activity at 50 µM: 18%

## O=C1C=CC(=O)c2c(O)ccc(O)c21 [Naphthazarin]
Human TrxR
  IC50: 650 nM

## O=C(O)CCCC[C@@H]1CCSS1 (racemic) [Lipoic acid]
S. mansoni TGR [5]; [7]
  kcat: 1.7 s⁻¹
S. mansoni TGR [5]; [8]
  Km: 2610 µM
  Vmax: 2.03 ± 0.135 µM/min

## O=C1C=CC(=O)c2ccccc21 [Compound M5]
S. mansoni TGR [1]
  activity: 37%

## CN(C)c1ccc2nc3ccc(=[N+](C)C)cc-3sc2c1 [Methylene blue]
S. mansoni TGR [6]
  activity at 50 µM: 100%

## Cc1cc2nc3cc(C)c(N)cc3[n+](-c3ccccc3)c2cc1N [Safranin]
S. mansoni TGR [1]
  activity: 75%

## O=C(C1CCCCC1)N1CC(=O)N2CCc3ccccc3C2C1 (stereo not drawn) [Praziquantel]
schistosomula
  Effect on schistosomula survival alone or in combination with RNAi: no effect
S. mansoni TGR [1]
  Inhibition of TGR, in words: no inhibitory activity
S. mansoni TGR [6]
  activity at 50 µM: 100%

## CC1=CC(=O)c2c(O)cccc2C1=O [Plumbagin]
S. mansoni TGR [6]
  activity at 50 µM: 15%

## O=C1OC(C(O)CO)C(=O)C1=O (stereo not drawn) [DHAA, dehydroascorbic acid]
S. mansoni TGR [5]; [7]
  kcat: <0.25 s⁻¹
S. mansoni TGR [5]; [8]
  Vmax: <0.3 µM/min

## COC1=C(OC)C(=O)C(C/C=C(\C)CC/C=C(\C)CC/C=C(\C)CC/C=C(\C)CC/C=C(\C)CC/C=C(\C)CC/C=C(\C)CC/C=C(\C)CC/C=C(\C)CCC=C(C)C)=C(C)C1=O [Ubiquinone]
S. mansoni TGR [5]; [7]
  kcat: <0.25 s⁻¹
S. mansoni TGR [5]; [8]
  Vmax: <0.3 µM/min

## CC(C)(C)OO [t-Butyl-OOH, tert-butyl hydroperoxide]
S. mansoni TGR [5]; [7]
  kcat: 10.7 s⁻¹
S. mansoni TGR [5]; [8]
  Km: 48600 µM
  Vmax: 12.8 ± 0.33 µM/min

## O=C(O)CC([S-])C(=O)O.[Au+] (stereo not drawn) [Aurothiomalate]
S. mansoni TGR [1]
  activity: 0%
Human TrxR
  IC50: 280 nM
S. mansoni TGR [2]; [10]
  IC50: 90 nM
S. mansoni TGR [3]; [11]
  IC50: 50 nM
S. mansoni TGR [4]
  IC50: 50 nM

## CN(C)CCC(=O)c1ccccc1 [Compound 3-DAP]
S. mansoni TGR [2]; [10]
  IC50: 500 nM
S. mansoni TGR [3]; [11]
  IC50: 7000 nM

B1: Trx: 12 kDa protein thioredoxin, substrate of TrxR and TGR enzymes (protein, UniProt P10599 2-105, looked up)
Thioredoxin: VKQIESKTAFQEALDAAGDKLVVVDFSATWCGPCKMIKPFFHSLSEKYSNVIFLEVDVDDCQDVASECEVKCMPTFQFFKKGQKVGEFSGANKEKLEATINELV
S. mansoni TGR [5]
  Apparent kcat, S. mansoni TGR: 30 s⁻¹
  Specific activity, S. mansoni TGR: 2.2 µmol/min/mg
  Specific activity of recombinant TGR with substrate: 2.2 U/mg
S. mansoni TGR [5]; [9]
  Km: 6.37 µM
Human TrxR1
  Specific activity, Human TrxR1: 5.9 µmol/min/mg
  Apparent kcat, Human TrxR1: 9.8 s⁻¹
  Km: 4.73 µM
Human TGR
  Specific activity, Human TGR: 4.2 µmol/min/mg
  Apparent kcat, Human TGR: 5.7 s⁻¹
  Km: 3 µM
